Measurements: patent publication US8436159B2, “Glyphosate resistant class I 5-endolpyruvylshikimate-3-phosphate synthase (EPSPS)” (Monsanto Technology LLC, priority 2003, dated 2013)

How the values were obtained:
[1] = system: E. coli EPSPS, native; conditions: native enzyme; read-out: apparent Ki for glyphosate; cited from earlier work
[2] = biological target: T1, maize (Zea mays) class I EPSPS variant TIPT (T102I, P106T), pMON58452, ZmTIPT SEQ ID NO:38 (Zea mays, UniProt O24566, P106T/T102I); assay: EPSPS steady-state kinetics, TIPT variant; assay type: biochemical
T1 construct: pMON58452
T1 sequence (O24566 1-444 T102I/P106T): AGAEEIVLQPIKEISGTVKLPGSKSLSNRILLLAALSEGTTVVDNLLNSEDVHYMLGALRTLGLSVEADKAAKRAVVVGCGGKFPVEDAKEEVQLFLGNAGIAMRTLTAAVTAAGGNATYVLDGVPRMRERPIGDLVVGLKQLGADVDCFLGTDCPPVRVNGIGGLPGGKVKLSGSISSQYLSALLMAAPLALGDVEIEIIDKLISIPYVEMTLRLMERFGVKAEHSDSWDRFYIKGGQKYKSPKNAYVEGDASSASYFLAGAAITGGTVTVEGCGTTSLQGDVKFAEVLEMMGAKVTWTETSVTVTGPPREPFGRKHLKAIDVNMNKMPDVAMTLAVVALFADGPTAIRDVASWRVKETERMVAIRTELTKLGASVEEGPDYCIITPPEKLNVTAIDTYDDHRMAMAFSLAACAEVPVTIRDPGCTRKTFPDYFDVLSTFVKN
From the text: The double variants of the present invention were made using pMON58452 (FIG. 5) as the template. This pMON58452 EPSPS gene template contains the maize EPSPS double variant T102I, P106T (TIPT) that was constructed by mutagenesis of pMON70467 with the mutagenesis primers mEmut-9-U and mEmut-10-L. The various mutagenesis primer sequences were designed and then were synthesized by Invitrogen Corp., Custom Primers and used in combination in a PCR to create the variant EPSPS coding sequences. The PCR was set up in a 50 μl reaction in the following manner: dH2O 38 μl; 2 mM dNTP 1 μL; 10× buffer 5 μL; pMON58452 1 μL (10 ng); primer-U 2 μL; primer-L 2 μL; pfu Turbo enzyme 1 μL. PCR was carried out on a MJ Research PTC-200 thermal cycler using the following program: Step 1—94° C. for 30 seconds; Step 2—94° C. for 30 seconds; Step 3—55° C. for 1 minute; Step 4—68° C. for 14 minute; Step 5—go to step 2, 16 times; Step 6—End. At the end of the PCR, 1 μl of the restriction enzyme DpnI was added to each 50 μl of PCR reaction and the mixture was incubated at 37° C. for 1 hour. […]

O=C(O)CNCP(=O)(O)O [glyphosate, N-phosphonomethylglycine]
Ki [1]: 0.5 µM | Ki [2]: 101 ± 12.7 µM
